The source of these data is patent US20090105305A1, “Therapeutic Agents - 550” (AstraZeneca AB, priority 2006, published 2009).

The structures appear in SMILES notation.

T1 sequence (P49327 whole entry): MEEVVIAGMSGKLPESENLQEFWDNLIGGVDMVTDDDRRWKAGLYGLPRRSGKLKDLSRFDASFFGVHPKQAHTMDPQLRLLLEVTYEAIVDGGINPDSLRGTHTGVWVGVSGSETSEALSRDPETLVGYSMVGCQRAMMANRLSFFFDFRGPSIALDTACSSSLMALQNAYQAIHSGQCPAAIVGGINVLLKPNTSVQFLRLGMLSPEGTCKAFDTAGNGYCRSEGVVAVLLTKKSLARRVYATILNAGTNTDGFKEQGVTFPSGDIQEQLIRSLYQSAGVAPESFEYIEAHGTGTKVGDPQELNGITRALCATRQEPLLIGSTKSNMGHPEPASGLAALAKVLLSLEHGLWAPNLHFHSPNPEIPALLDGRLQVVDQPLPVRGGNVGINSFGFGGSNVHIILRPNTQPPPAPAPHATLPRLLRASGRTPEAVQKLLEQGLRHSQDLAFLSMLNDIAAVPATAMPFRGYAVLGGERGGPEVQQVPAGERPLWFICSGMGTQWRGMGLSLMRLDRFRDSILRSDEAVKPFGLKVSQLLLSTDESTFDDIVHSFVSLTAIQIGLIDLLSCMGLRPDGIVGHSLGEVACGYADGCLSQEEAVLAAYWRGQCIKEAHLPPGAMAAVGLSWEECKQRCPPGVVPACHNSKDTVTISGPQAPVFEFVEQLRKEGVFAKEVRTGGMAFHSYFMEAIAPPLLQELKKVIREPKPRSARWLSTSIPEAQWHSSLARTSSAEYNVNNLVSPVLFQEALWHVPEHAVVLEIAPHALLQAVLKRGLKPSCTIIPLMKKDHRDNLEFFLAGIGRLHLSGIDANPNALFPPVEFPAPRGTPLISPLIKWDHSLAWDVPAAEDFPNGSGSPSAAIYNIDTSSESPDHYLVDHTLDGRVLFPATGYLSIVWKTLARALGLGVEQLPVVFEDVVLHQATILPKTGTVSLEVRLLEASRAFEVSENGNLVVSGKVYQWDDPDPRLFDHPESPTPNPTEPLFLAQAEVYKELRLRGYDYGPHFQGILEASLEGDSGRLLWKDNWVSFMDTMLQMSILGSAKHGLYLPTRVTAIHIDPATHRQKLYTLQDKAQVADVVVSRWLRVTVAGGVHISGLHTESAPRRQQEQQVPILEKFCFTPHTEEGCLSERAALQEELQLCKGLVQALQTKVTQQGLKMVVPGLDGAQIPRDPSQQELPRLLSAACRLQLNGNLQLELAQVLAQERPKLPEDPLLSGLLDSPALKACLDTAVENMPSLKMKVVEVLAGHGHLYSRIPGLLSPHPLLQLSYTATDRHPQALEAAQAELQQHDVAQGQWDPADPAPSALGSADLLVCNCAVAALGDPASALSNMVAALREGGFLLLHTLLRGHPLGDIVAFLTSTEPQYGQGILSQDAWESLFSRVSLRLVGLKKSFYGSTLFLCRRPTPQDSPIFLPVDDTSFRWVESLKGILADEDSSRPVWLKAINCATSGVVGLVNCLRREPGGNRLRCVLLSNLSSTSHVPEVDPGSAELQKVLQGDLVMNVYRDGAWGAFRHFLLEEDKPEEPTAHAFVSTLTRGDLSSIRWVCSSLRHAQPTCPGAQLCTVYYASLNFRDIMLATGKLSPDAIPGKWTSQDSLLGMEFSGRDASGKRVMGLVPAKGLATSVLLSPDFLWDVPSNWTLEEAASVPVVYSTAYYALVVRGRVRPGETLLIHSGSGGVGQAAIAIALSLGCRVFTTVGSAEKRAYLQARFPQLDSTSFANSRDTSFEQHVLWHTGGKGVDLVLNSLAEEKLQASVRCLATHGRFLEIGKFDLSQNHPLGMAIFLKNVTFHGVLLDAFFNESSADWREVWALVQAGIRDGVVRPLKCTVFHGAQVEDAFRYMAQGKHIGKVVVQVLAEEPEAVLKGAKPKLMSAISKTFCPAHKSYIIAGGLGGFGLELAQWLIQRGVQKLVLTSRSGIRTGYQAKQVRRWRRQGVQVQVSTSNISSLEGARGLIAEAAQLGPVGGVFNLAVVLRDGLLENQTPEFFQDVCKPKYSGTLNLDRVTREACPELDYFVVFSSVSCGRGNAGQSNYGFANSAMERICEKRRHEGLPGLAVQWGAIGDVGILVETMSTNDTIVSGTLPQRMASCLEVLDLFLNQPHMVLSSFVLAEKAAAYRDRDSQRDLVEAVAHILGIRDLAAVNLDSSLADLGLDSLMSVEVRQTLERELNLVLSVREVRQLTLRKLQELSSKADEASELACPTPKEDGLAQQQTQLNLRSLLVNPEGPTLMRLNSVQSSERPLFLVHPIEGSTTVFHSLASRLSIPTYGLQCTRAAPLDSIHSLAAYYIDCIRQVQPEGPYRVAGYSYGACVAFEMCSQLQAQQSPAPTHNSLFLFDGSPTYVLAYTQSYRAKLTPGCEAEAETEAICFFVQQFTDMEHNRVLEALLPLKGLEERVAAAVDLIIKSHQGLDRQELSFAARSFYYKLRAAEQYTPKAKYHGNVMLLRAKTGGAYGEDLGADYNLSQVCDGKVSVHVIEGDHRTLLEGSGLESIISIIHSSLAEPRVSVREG

One test addresses T1, human Fatty Acid Synthase (Homo sapiens, UniProt P49327).
T1 construct: made in house
As to the kind of experiment: Human FAS enzyme assay (decrease in NADPH fluorescence). The test is classed as biochemical. Conditions: % inhibition at a concentration of 100 micromolar. In short, it runs like this:
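In-house human FAS (0.4 μg) was preincubated 15 min at RT with compound and NADPH (added at 166.6 μM) in 0.1 M Tris pH 7.5, 1 mM glutathione, 0.05% BSA. Malonyl-/acetyl-CoA (500/150 μM in substrate mix) was then added for 60 min. Readout was NADPH fluorescence loss (ex 340/em 460) over a time-zero read, with IC50 from a sigmoid fit.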
Regarding `CNS(=O)(=O)c1ccc(C2CCN(C(=O)c3ccc(C)c(NS(C)(=O)=O)c3)CC2)cc1` [Example 183, 4-[1-(3-methanesulfonamido-4-methylbenzoyl)piperidin-4-yl]-N-methylbenzenesulfonamide], 100 µM produced 90% inhibition.

`CS(=O)(=O)Nc1cc(C(=O)N2CCC(c3ccc(C#N)cc3)CC2)ccc1S(C)(=O)=O` [Example 210, N-[5-[4-(4-cyanophenyl)piperidine-1-carbonyl]-2-methylsulfonylphenyl]methanesulfonamide] yielded an inhibition at 100 µM of 91%.

Compound `Cc1ccc(C(=O)N2CCC(c3ccc(C#N)cc3)CC2)cc1NS(=O)(=O)C1CC1` [Example 14, N-[5-[4-(4-cyanophenyl)piperidine-1-carbonyl]-2-methyl-phenyl]cyclopropanesulfonamide] returned an inhibition at 100 µM of 89%.

Compound `Cc1ccc(C(=O)N2CCC(c3ccc(C#N)c(F)c3)CC2)cc1NS(C)(=O)=O` [Example 179, N-[5-[4-(4-cyano-3-fluorophenyl)piperidine-1-carbonyl]-2-methylphenyl]methanesulfonamide] returned an inhibition at 100 µM of 85%.

For `Cc1ccc(C(=O)N2CCC(c3ccc(C#N)cc3)CC2)cc1NS(=O)(=O)CC1(C)NC(=O)NC1=O` (stereo in doubt) [Example 147, N-[5-[4-(4-cyanophenyl)piperidine-1-carbonyl]-2-methyl-phenyl]-1-[(4R)-4-methyl-2,5-dioxo-imidazolidin-4-yl]methanesulfonamide], at 100 µM the inhibition was 98%.

`CCCS(=O)(=O)NCc1ccc(C2CCN(C(=O)c3ccc(C)c(NS(C)(=O)=O)c3)CC2)cc1` [Example 237, N-[[4-[1-(3-methanesulfonamido-4-methylbenzoyl)piperidin-4-yl]phenyl]methyl]propane-1-sulfonamide] registered an inhibition at 100 µM of 85.2%.

In the case of `Cc1ccc(C(=O)N2CCC(c3ccc(C#N)cc3)CC2)cc1NS(=O)(=O)CCCO` [Example 205, N-[5-[4-(4-cyanophenyl)piperidine-1-carbonyl]-2-methylphenyl]-3-hydroxypropane-1-sulfonamide], the inhibition at 100 µM worked out at 75%.

For the compound `CCCC(=O)NCc1ccc(C2CCN(C(=O)c3ccc(C)c(NS(C)(=O)=O)c3)CC2)cc1` [Example 235, N-[[4-[1-(3-methanesulfonamido-4-methylbenzoyl)piperidin-4-yl]phenyl]methyl]butanamide], at 100 µM the inhibition was 72.8%.

`Cc1ccc(C(=O)N2CCC(c3ccc(CNC(=O)C(C)C)cc3)CC2)cc1NS(C)(=O)=O` [Example 226, N-[[4-[1-(3-methanesulfonamido-4-methylbenzoyl)piperidin-4-yl]phenyl]methyl]-2-methylpropanamide]: testing at 100 µM gave an inhibition of 81%.

Compound `Cc1ccc(C(=O)N2CCC(c3ccc(C#N)cc3)CC2)cc1NS(=O)(=O)c1ccccc1F` [Example 2, N-[5-[4-(4-cyanophenyl)piperidine-1-carbonyl]-2-methyl-phenyl]-2-fluoro-benzenesulfonamide] returned an inhibition at 100 µM of 82%.

On to `CCOC(=O)NCc1ccc(C2CCN(C(=O)c3ccc(C)c(NS(C)(=O)=O)c3)CC2)cc1` [Example 228, Ethyl N-[[4-[1-(3-methanesulfonamido-4-methylbenzoyl)piperidin-4-yl]phenyl]methyl]carbamate], for which testing at 100 µM gave an inhibition of 85.5%.

On to `Cc1ccc(C(=O)N2CCC(c3ccc(C#N)cc3)CC2)cc1NS(=O)(=O)c1ccc(Cl)nc1` [Example 90, 6-chloro-N-[5-[4-(4-cyanophenyl)piperidine-1-carbonyl]-2-methyl-phenyl]pyridine-3-sulfonamide], for which the inhibition at 100 µM stood at 79%.

`Cc1ccc(C(=O)N2CCC(c3ccc(C#N)cc3)CC2)cc1NS(=O)(=O)c1ccc(N2CCOCC2)nc1` [Example 93, N-[5-[4-(4-cyanophenyl)piperidine-1-carbonyl]-2-methyl-phenyl]-6-morpholin-4-yl-pyridine-3-sulfonamide] gave an inhibition at 100 µM of 79%.

In turn, `Cc1ccc(C(=O)N2CCC(c3ccc(C#N)cc3)CC2)cc1NS(=O)(=O)c1cnc(C)n1C` [Example 114, N-[5-[4-(4-cyanophenyl)piperidine-1-carbonyl]-2-methyl-phenyl]-2,3-dimethyl-imidazole-4-sulfonamide] registered an inhibition at 100 µM of 85%.

`Cc1ccc(C(=O)N2CCC(c3ccc(C#N)cc3)CC2)cc1NS(=O)(=O)c1cn(C)cn1` [Example 94, N-[5-[4-(4-cyanophenyl)piperidine-1-carbonyl]-2-methyl-phenyl]-1-methyl-imidazole-4-sulfonamide] gave an inhibition at 100 µM of 86%.

For the compound `COc1cc(C2CCN(C(=O)c3ccc(C)c(NS(C)(=O)=O)c3)CC2)ccc1C#N` [Example 178, N-[5-[4-(4-cyano-3-methoxyphenyl)piperidine-1-carbonyl]-2-methylphenyl]methanesulfonamide], testing at 100 µM gave an inhibition of 81%.

For the compound `Cc1ccc(C(=O)N2CCC(c3ccc(C(F)(F)F)cc3)CC2)cc1NS(C)(=O)=O` [Example 157, N-[2-methyl-5-[4-[4-(trifluoromethyl)phenyl]piperidine-1-carbonyl]phenyl]methanesulfonamide], the inhibition at 100 µM came to 78%.

For the compound `Cc1ccc(C(=O)N2CCC(c3ccc(CS(C)(=O)=O)cc3)CC2)cc1NS(C)(=O)=O` [Example 223, N-[2-methyl-5-[4-[4-(methylsulfonylmethyl)phenyl]piperidine-1-carbonyl]phenyl]-methanesulfonamide], at 100 µM the inhibition was 74%.

As to `Cc1ccc(C(=O)N2CCC(c3ccc(C#N)cc3)CC2)cc1NS(=O)(=O)Cc1ccc(F)cc1F` [Example 61, N-[5-[4-(4-cyanophenyl)piperidine-1-carbonyl]-2-methyl-phenyl]-1-(2,4-difluorophenyl)methanesulfonamide], the inhibition at 100 µM was 93%.

With `CCCCS(=O)(=O)Nc1ccc(C)c(C(=O)N2CCC(c3ccc(C#N)cc3)CC2)c1` [Example 37, N-[3-[4-(4-cyanophenyl)piperidine-1-carbonyl]-4-methyl-phenyl]butane-1-sulfonamide], at 100 µM the inhibition was 91%.

As for `Cc1ccc(C(=O)N2CCC(c3ccc(C#N)cc3)CC2)cc1NS(=O)(=O)c1ccccc1C(=O)NC(C)C` [Example 208, 2-[[5-[4-(4-cyanophenyl)piperidine-1-carbonyl]-2-methylphenyl]sulfamoyl]-N-propan-2-ylbenzamide], testing at 100 µM gave an inhibition of 75%.

`Cc1ccc(C(=O)N2CCC(c3ccc(Cl)cc3)CC2)cc1NS(=O)(=O)C1CCS(=O)(=O)C1` (stereo not drawn) [Example 216, N-[5-[4-(4-chlorophenyl)piperidine-1-carbonyl]-2-methylphenyl]-1,1-dioxothiolane-3-sulfonamide] displayed an inhibition at 100 µM of 89%.

Staying with this test, now noted: compounds excluded from the claims by proviso.
Turning to `Cc1ccc(C(=O)N2CCC(c3cc(F)c(C#N)c(F)c3)CC2)cc1NS(C)(=O)=O` [N-[5-[4-(4-cyano-3,5-difluorophenyl)piperidine-1-carbonyl]-2-methylphenyl]methanesulfonamide], the “IC50s in the range of about 0.001 μM to about 30 μM” value is “do not have IC50s in the range of about 0.001 μM to about 30 μM”.

Staying with this test, now noted: unit inferred.
The compound `CNC(=O)CCc1ccc(C2CCN(C(=O)c3ccc(C)c(NS(C)(=O)=O)c3)CC2)cc1` [Example 248, 3-[4-[1-(3-methanesulfonamido-4-methylbenzoyl)piperidin-4-yl]phenyl]-N-methylpropanamide] displayed an IC50 of 405 nM.

As usually defined, the inhibition is the change of the read-out against control, counted positive when it falls. A high value points to a strong effect. What is called IC50 is the midpoint of a concentration-inhibition curve. Lower therefore signals greater potency in that assay.
